Among the data in patent publication US9802920B2, “Inhibitors of bruton's tyrosine kinase” (HOFFMANN-LA ROCHE INC., priority 2013, dated 2017) are IC50 and FRET IC50 values, retold here.

Assay [1] has as its target inactivated state of Bruton's Tyrosine Kinase (Homo sapiens (Human), UniProt Q06187). Kind of assay: Bruton's Tyrosine Kinase (BTK) Inhibition TR-FRET competition assay. Format: binding. The settings on record: Kinase Tracer 178, incubated 18-24 h at 14° C. The text has this: Calculate percent activity from raw data in cpm percent activity=(sample−bkg)/(total activity−bkg)×100 Calculate IC50 from percent activity, using one-site dose response sigmoidal model y=A+((B−A)/(1+((x/C)^D)))) x=cmpd conc, y=% activity, A=min, B=max, C=IC50, D=1 (hill slope) Bruton's Tyrosine Kinase (BTK) Inhibition TR-FRET (Time Resolved FRET) Assay
This BTK competition assay measures compound potency (IC50) for the inactivated state of Bruton's Tyrosine Kinase using FRET (Förster/Flouresence Resonance Energy Transfer) technology. The BTK-Eu complex was incubated on ice one hour prior to use at a starting concentration of 50 nM BTK-Bioease™: 10 nM Eu-streptavidin (Perkin-Elmer Catalog# AD0062). The assay buffer consisted of 20 mM HEPES (pH 7.15), 0.1 mM DTT, 10 mM MgCl2, 0.5 mg/ml BSA with 3% Kinase Stabilizer (Fremont Biosolutions, Catalog # STB-K02). After 1 h, the reaction mixture from above was diluted 10 fold in assay buffer to make 5 nM BTK: 1 nM Eu-Streptavidin complex (donor fluorophore). 18 μl of a mixture of 0.11 nM BTK-Eu and 0.11 nM Kinase Tracer 178 (Invitrogen, Catalog # PV5593) with BTK-Eu alone as no negative control, was then dispensed into 384-well flat bottom plates (Greiner, 784076). Compounds to be tested in assay were prepared as 10× concentrations and serial dilution in half-log increments was performed in DMSO so as to generate 10 point curves. To initiate the FRET reaction, compounds prepared as 10× stock in DMSO was added to the plates and the plates were incubated 18-24 h at 14° C.
After the incubation the plates were read on a BMG Pherastar Fluorescent plate reader (or equivalent) and used to measure the emission energy from the europium donor fluorophore (620 nm emission) and the FRET (665 nm emission). The negative control well values were averaged to obtain the mean minimum. The positive “no inhibitor” control wells were averaged to obtain the mean maximum. Percent of maximal FRET was calculated using following equation: % max FRET=100×[(FSRcmpd−FSRmean min)/(FSRmean max−FSRmean min)] where FSR=FRET Signal ratio. % Max FRET curves were plotted in Activity Base (Excel) and the IC50(%), hill slope, z′ and % CV were determined. The mean IC50 and standard deviation will be derived from duplicate curves (singlet inhibition curves from two independent dilutions) using Microsoft Excel.
On the technique in general: In TR-FRET formats the signal depends on donor and acceptor labels being close together.

The target of assay [2] is Btk enzyme (His-tagged, full-length) (Homo sapiens (Human), UniProt Q06187). Kind of assay: Bruton's Tyrosine Kinase (Btk) Inhibition Assay, radioactive 33P filtration capture. The class given is biochemical. The settings on record: 100 μM ATP, 30 μM peptide substrate; read-out: Radiometric IC50. The text has this: Bruton's Tyrosine Kinase (Btk) Inhibition Assay
Btk enzyme (His-tagged, full-length), sequence (Q06187 whole entry): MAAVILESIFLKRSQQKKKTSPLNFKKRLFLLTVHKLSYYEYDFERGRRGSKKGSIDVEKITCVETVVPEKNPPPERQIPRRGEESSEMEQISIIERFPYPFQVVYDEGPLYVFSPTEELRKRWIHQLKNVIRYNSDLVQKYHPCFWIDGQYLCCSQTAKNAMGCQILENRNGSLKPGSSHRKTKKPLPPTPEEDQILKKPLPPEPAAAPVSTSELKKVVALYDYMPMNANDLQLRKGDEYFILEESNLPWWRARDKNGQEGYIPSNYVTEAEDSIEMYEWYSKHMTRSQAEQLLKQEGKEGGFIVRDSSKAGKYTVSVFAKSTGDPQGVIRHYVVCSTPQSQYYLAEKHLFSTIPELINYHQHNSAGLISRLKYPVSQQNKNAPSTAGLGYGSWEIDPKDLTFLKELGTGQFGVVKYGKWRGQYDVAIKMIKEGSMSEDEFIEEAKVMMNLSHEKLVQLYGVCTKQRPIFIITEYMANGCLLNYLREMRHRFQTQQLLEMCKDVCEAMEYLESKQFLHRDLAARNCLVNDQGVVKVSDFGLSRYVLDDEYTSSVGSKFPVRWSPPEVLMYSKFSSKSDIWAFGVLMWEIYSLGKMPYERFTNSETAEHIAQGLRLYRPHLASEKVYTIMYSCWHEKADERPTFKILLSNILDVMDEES
The assay is a capture of radioactive ^33P phosphorylated product through filtration. The interactions of Btk, biotinylated SH2 peptide substrate (Src homology), and ATP lead to phosphorylation of the peptide substrate. Biotinylated product is bound streptavidin sepharose beads. All bound, radiolabeled products are detected by scintillation counter.
Plates assayed are 96-well polypropylene (Greiner) and 96-well 1.2 μm hydrophilic PVDF filter plates (Millipore). Concentrations reported here are final assay concentrations: 10-100 μM compounds in DMSO (Burdick and Jackson), 5-10 nM Btk enzyme (His-tagged, full-length), 30 μM peptide substrate (Biotin-Aca-[…]-NH2), 100 μM ATP (Sigma), 8 mM imidazole (Sigma, pH 7.2), 8 mM glycerol-2-phosphate (Sigma), 200 μM EGTA (Roche Diagnostics), 1 mM MnCl2 (Sigma), 20 mM mgCl2 (Sigma), 0.1 mg/mL BSA (Sigma), 2 mM DTT (Sigma), 1 μCi ^33P ATP (Amersham), 20% streptavidin sepharose beads (Amersham), 50 mM EDTA (Gibco), 2 M NaCl (Gibco), 2 M NaCl w/1% phosphoric acid (Gibco), microscint-20 (Perkin Elmer).
IC50 determinations are calculated from 10 data points per compound utilizing data produced from a standard 96-well plate assay template. One control compound and seven unknown inhibitors were tested on each plate and each plate was run twice. Typically, compounds were diluted in half-log starting at 100 μM and ending at 3 nM. The control compound was staurosporine. Background was counted in the absence of peptide substrate. Total activity was determined in the presence of peptide substrate. The following protocol was used to determine Btk inhibition.
Sample preparation: The test compounds were diluted at half-log increments in assay buffer (imidazole, glycerol-2-phosphate, EGTA, MnCl2, mgCl2, BSA).
1) Rinse beads by centrifuging at 500 g
2) Reconstitute the beads with PBS and EDTA to produce a 20% bead slurry
3) Pre-incubate reaction mix without substrate (assay buffer, DTT, ATP, ^33P ATP) and mix with substrate (assay buffer, DTT, ATP, ^33P ATP, peptide substrate) 30° C. for 15 min.
4) To start assay, pre-incubate 10 μL Btk in enzyme buffer (imidazole, glycerol-2-phosphate, BSA) and 10 μL of test compounds for 10 min at RT.
5) Add 30 μL reaction mixture without or with substrate to Btk and compounds.
6) Incubate 50 μL total assay mix for 30 min at 30° C.
7) Transfer 40 μL of assay to 150 μL bead slurry in filter plate to stop reaction.
8) Wash filter plate after 30 min, with following steps
3×250 μL NaCl containing 1% phosphoric acid
9) Dry plate for 1 h at 65° C. or overnight at RT
10) Add 50 μL microscint-20 and count ^33P cpm on scintillation counter. […]

inactivated state of Bruton's Tyrosine Kinase, sequence (Q06187 whole entry): as above

Usually IC50 stands for the point on the concentration scale where inhibition reaches its midpoint. With `Nc1c(C(=O)c2cc3ccccc3[nH]2)cnn1-c1ccc(Oc2ccccc2)c(F)c1` [Compound I-1, [5-Amino-1-(3-fluoro-4-phenoxy-phenyl)-1H-pyrazol-4-yl]-(1H-indol-2-yl)-methanone], the concentration for half-maximal inhibition (IC50) in assay [1] worked out at 41 nM.

Take `Nc1c(C(=O)c2cc3ccccc3[nH]2)cnn1-c1ccc(Oc2ccccc2)nc1` [Compound I-2, [5-Amino-1-(6-phenoxy-pyridin-3-yl)-1H-pyrazol-4-yl]-(1H-indol-2-yl)-methanone]: in assay [2], the IC50 worked out at 869 nM.

With `Nc1c(C(=O)c2cc3ccccc3[nH]2)cnn1-c1ccc(Oc2ccccn2)cc1` [Compound I-3, {5-Amino-1-[4-(pyridin-2-yloxy)-phenyl]-1H-pyrazol-4-yl}-(1H-indol-2-yl)-methanone], in assay [2], the IC50 is 502 nM.

On to `Nc1c(C(=O)c2cc3ccccc3[nH]2)cnn1-c1ccc(Oc2cccnc2)cc1` [Compound I-4, {5-Amino-1-[4-(pyridin-3-yloxy)-phenyl]-1H-pyrazol-4-yl}-(1H-indol-2-yl)-methanone], for which the IC50 in assay [2] is 22000 nM.

`Nc1c(C(=O)c2cc3ccccc3[nH]2)cnn1-c1ccc(Oc2ccccc2)c(Cl)c1` [Compound I-5] registered an IC50 in assay [1] of 216 nM.

Consider `Nc1c(C(=O)c2cc3ccccc3[nH]2)cnn1-c1ccc(Oc2ccc(F)c(F)c2)cc1` [Compound I-6, {5-Amino-1-[4-(3,4-difluoro-phenoxy)-phenyl]-1H-pyrazol-4-yl}-(1H-indol-2-yl)-methanone], for which, in assay [1], the half-inhibitory concentration (IC50) turned out to be 1000 nM.

Take `Nc1c(C(=O)c2cc3ccccc3[nH]2)cnn1-c1ccc(Oc2ccccc2)c(O)c1` [Compound I-8, [5-Amino-1-(3-hydroxy-4-phenoxy-phenyl)-1H-pyrazol-4-yl]-(1H-indol-2-yl)-methanone]: the IC50 in assay [1] was found to be 59 nM.

`COc1cc(Oc2ccccc2)ccc1-n1ncc(C(=O)c2cc3ccccc3[nH]2)c1N` [Compound I-9, [5-Amino-1-(2-methoxy-4-phenoxy-phenyl)-1H-pyrazol-4-yl]-(1H-indol-2-yl)-methanone] came in with an IC50 in assay [1] of 146 nM.

In assay [1], `Nc1c(C(=O)c2cc3ccccc3[nH]2)cnn1-c1ccc(Oc2ccccc2)cc1O` [Compound I-10, [5-Amino-1-(2-hydroxy-4-phenoxy-phenyl)-1H-pyrazol-4-yl]-(1H-indol-2-yl)-methanone] returned an IC50 of 162 nM.

For `CC(C)Oc1ccc(-n2ncc(C(=O)c3cc4ccccc4[nH]3)c2N)cc1` [Compound I-11, [5-Amino-1-(4-isopropoxy-phenyl)-1H-pyrazol-4-yl]-(1H-indol-2-yl)-methanone], the IC50 in assay [2] was found to be 73800 nM.

In assay [1], `Nc1c(C(=O)c2cc3ccccc3[nH]2)cnn1-c1ccc(OC2CCCC2)cc1` [Compound I-12, [5-Amino-1-(4-cyclopentyloxy-phenyl)-1H-pyrazol-4-yl]-(1H-indol-2-yl)-methanone] displayed an FRET IC50 above 1000 nM.

In assay [1], `CC(C)(C)COc1ccc(-n2ncc(C(=O)c3cc4ccccc4[nH]3)c2N)cc1` [Compound I-13, {5-Amino-1-[4-(2,2-dimethyl-propoxy)-phenyl]-1H-pyrazol-4-yl}-(1H-indol-2-yl)-methanone] showed an FRET IC50 above 1000 nM.

Compound `Cc1cc(Oc2cccc(F)c2F)ccc1-n1ncc(C(=O)c2cc3ccccc3[nH]2)c1N` [Compound I-14, {5-Amino-1-[4-(2,3-difluoro-phenoxy)-2-methyl-phenyl]-1H-pyrazol-4-yl}-(1H-indol-2-yl)-methanone] gave a half-maximal inhibitory concentration (IC50) in assay [1] of 3 nM.

For the compound `Cc1cc(Oc2ccccc2C#N)ccc1-n1ncc(C(=O)c2cc3ccccc3[nH]2)c1N` [Compound I-15, 2-{4-[5-Amino-4-(1H-indole-2-carbonyl)-pyrazol-1-yl]-3-methyl-phenoxy}-benzonitrile], in assay [1], the IC50 was determined as 7 nM.

In assay [1], `N#Cc1cccc(Oc2ccc(-n3ncc(C(=O)c4cc5ccccc5[nH]4)c3N)c(Cl)c2)c1` [Compound I-16, 3-{4-[5-Amino-4-(1H-indole-2-carbonyl)-pyrazol-1-yl]-3-chloro-phenoxy}-benzonitrile] came in with an IC50 of 82 nM.

Compound `Cc1cc(Oc2cccc(C(N)=O)c2)ccc1-n1ncc(C(=O)c2nc3ccccc3[nH]2)c1N` [Compound I-17, 3-{4-[5-Amino-4-(1H-benzoimidazole-2-carbonyl)-pyrazol-1-yl]-3-methyl-phenoxy}-benzamide] returned an IC50 in assay [1] of 230 nM.

For `Cc1cc(Oc2cccc(F)c2F)ccc1-n1ncc(C(=O)c2nc3ccccc3[nH]2)c1N` [Compound I-18, {5-Amino-1-[4-(2,3-difluoro-phenoxy)-2-methyl-phenyl]-1H-pyrazol-4-yl}-(1H-benzoimidazol-2-yl)-methanone], the IC50 in assay [1] stood at 5 nM.

As to `Nc1c(C(=O)c2cc3ccc(CN4CCOCC4)cc3[nH]2)cnn1-c1ccc(Oc2ccccc2)cc1` [Compound I-19, [5-Amino-1-(4-phenoxy-phenyl)-1H-pyrazol-4-yl]-(6-morpholin-4-ylmethyl-1H-indol-2-yl)-methanone], the IC50 in assay [1] was 0.5 nM.

Regarding `N#Cc1cccc(Oc2ccc(-n3ncc(C(=O)c4cc5ccc(CN6CCOCC6)cc5[nH]4)c3N)c(Cl)c2)c1` [Compound I-20, 3-{4-[5-Amino-4-(6-morpholin-4-ylmethyl-1H-indole-2-carbonyl)-pyrazol-1-yl]-3-chloro-phenoxy}-benzonitrile], the IC50 in assay [1] was 1 nM.
